Measurements from US9567319B2, “Compound having higher inhibitory activity on protein kinase G and preparation method thereof” (Jenkem Technology Co., Ltd., (Tianjin), priority 2014, dated 2017).
“And” between values parts separate entries of the source, which are not always exact repeats. Identical values can stand only once.

What was measured:
[1] = Test of water solubility of the compounds
Description: At room temperature, about 0.1 g of each sample to be tested (solid materials should be ground as powder) was added to a 10 mL cylinder with a ground glass stopper. Water was gradually added. After each addition of 0.5 mL water, the resulting solution was stirred for 10 min for mixing, and was then visually examined for the presence of any undissolved sample. If there still exists undissolved sample or undissolved portions of the sample after 10 mL water was added, the test would be continued in a 100 mL cylinder.

[2] = tested on: hyperalgesia induced by Freund's complete adjuvant (CFA) in rats; test: Von Frey filament test, CFA induced hyperalgesia in rats; format: in vivo, SD rats; details: for Von Frey Filament Test Values (Mean ± SD), Baseline: pretreatment, n=8; for Von Frey Filament Test Values (Mean ± SD), 15 min: 15 min post treatment; for Von Frey Filament Test Values (Mean ± SD), 2 h: 2 h post treatment
Description: Compounds 46 and JK-02A were prepared according to the disclosure of US patent application No. US2008/0176920, and compound JK-02H was prepared according to Example 1. A repeat efficacy study was carried out on the same batch of animals with a single-dose treatment followed by a washing-out period. The 14 days in life studies included two stages: a single low dose treatment assessment on the 7th day and then a single high dose treatment test on the 14th day after CFA injection. On the 7th day after CFA injection, the rats were randomly assigned to respective groups using a computer generated randomization procedure based on the body weight and the baseline values of Von Frey and weight bearing test. Animals received corresponding single dose treatments (vehicle and 3 test articles) on the 7th and 14th days after CFA injection, respectively, and the effect of the test compounds were evaluated. Hyperalgesia of all the study animals was assessed following a single low dose treatment with the test articles on day 7, while a single high dose effect of the test article was evaluated on day 14. The mechanical hyperalgesia and weight bearing were measured on day 7 and day 14 after CFA injection, followed by administration of control or test articles. Von Frey filaments and weight bearing were measured on all the study animals at three time points on day 7, and four time points on day 14. An extra time point assessment was conducted on day 14, considering the strong analgesic effect of the test articles at a higher dose noticed during the test at the 3th time point. Mechanical hyperalgesia of the left hind paw was measured before and during the course of study in all animal groups by determining withdrawal thresholds to Von Frey filament (Bioseb, France). Increasing tensile force perpendicular to the plantar surface of the paw was applied to the filaments. The threshold for paw withdrawal was calculated by taking the average of 2-3 repeated stimuli (unit in “g”). On day 7, Von Frey Filament measurements were conducted three times, at the time points of pretreatment, 15 min and 2 hours post treatment. Following a one-week washing out period, on day 14 after CFA injection, Von Frey Filament tests were performed again four times post a single high dose administration. Rats treated with vehicle or high dose test articles were measured at the time points of pretreatment, 15 min, 2 and 5 hours post treatment. All the results were expressed as mean±SD. One-way analysis of variance (ANOVA) followed by a multiple comparison test were applied among the groups, p<0.05 accepted as significant.

[3] = tested on: hyperalgesia induced by Freund's complete adjuvant (CFA) in rats; test: Weight bearing test, CFA induced hyperalgesia in rats; format: in vivo, SD rats; details: for Weight Bearing Test Values (Mean ± SD), Baseline: pretreatment, n=8; for Weight Bearing Test Values (Mean ± SD), 15 min: 15 min post treatment; for Weight Bearing Test Values (Mean ± SD), 2 h: 2 h post treatment
Description: Compounds 46 and JK-02A were prepared according to the disclosure of US patent application No. US2008/0176920, and compound JK-02H was prepared according to Example 1. A repeat efficacy study was carried out on the same batch of animals with a single-dose treatment followed by a washing-out period. The 14 days in life studies included two stages: a single low dose treatment assessment on the 7th day and then a single high dose treatment test on the 14th day after CFA injection. On the 7th day after CFA injection, the rats were randomly assigned to respective groups using a computer generated randomization procedure based on the body weight and the baseline values of Von Frey and weight bearing test. Animals received corresponding single dose treatments (vehicle and 3 test articles) on the 7th and 14th days after CFA injection, respectively, and the effect of the test compounds were evaluated. Hyperalgesia of all the study animals was assessed following a single low dose treatment with the test articles on day 7, while a single high dose effect of the test article was evaluated on day 14. The mechanical hyperalgesia and weight bearing were measured on day 7 and day 14 after CFA injection, followed by administration of control or test articles. Von Frey filaments and weight bearing were measured on all the study animals at three time points on day 7, and four time points on day 14. An extra time point assessment was conducted on day 14, considering the strong analgesic effect of the test articles at a higher dose noticed during the test at the 3th time point. Rats distributed body weight unequally on the CFA-injected and contra lateral paws, which was measured by a weight balance changing instrument (Bio-medical, USA). The animals were tested in a box constructed to register the weight load exerted by the hind paws by means of force plates inserted in the floor. The mean weight bearing (unit in “g”) between the CFA-injected paw and the contra-lateral paw was determined in 10 seconds. The weight bearing test of all study animals was conducted at the same time intervals as the mechanical hyperalgesia test. All the results were expressed as mean±SD. One-way analysis of variance (ANOVA) followed by a multiple comparison test were applied among the groups, p<0.05 accepted as significant.

[4] = day 7 after CFA, low dose groups (46 and JK-02A 10 mg/kg, JK-02H 5 mg/kg)
[5] = day 7 after CFA, single low dose i.v. (46 and JK-02A 10 mg/kg, JK-02H 5 mg/kg)
[6] = day 14 after CFA, high dose groups (46 and JK-02A 40 mg/kg, JK-02H 20 mg/kg)
[7] = day 14 after CFA, single high dose i.v. (46 and JK-02A 40 mg/kg, JK-02H 20 mg/kg)
[8] = day 14 after CFA, single high dose i.v. (46 and JK-02A 40 mg/kg, JK-02H 20 mg/kg), 5 h post treatment
[9] = individual animal, high dose i.v. (46 and JK-02A 40 mg/kg, JK-02H 20 mg/kg), two repeated stimuli, hydrochloride
[10] = individual animal, low dose i.v. (46 and JK-02A 10 mg/kg, JK-02H 5 mg/kg), two repeated stimuli, hydrochloride
[11] = individual animal, high dose i.v. (46 and JK-02A 40 mg/kg, JK-02H 20 mg/kg), hydrochloride
[12] = individual animal, low dose i.v. (46 and JK-02A 10 mg/kg, JK-02H 5 mg/kg), hydrochloride

## Cl.O=C(N[C@@H]1CNC[C@H]1NC(=O)c1ccc2cn[nH]c2c1)c1ccc(C(=O)c2c(OCCOCCO)ccc(F)c2F)cc1 [JK-02H, (3R,4R)-3-{4-[2,3-difluoro-6-(5-hydroxy-3-oxapentan-1-oxy)]benzoyl}benzamido-4-(1H-indazole-6-carboxamido)pyrrolidine hydrochloride]
[1]; about 0.1 g sample, room temperature, water added until dissolved
  Volume of added water: 13.5 mL
[1]; relative to compound 46 (parent compound)
  water solubility, times higher than that of compound 46: about 5 times
[1]; water, thermodynamic from solid
  solubility: 7400 µg/mL
[2]; [4]
  Von Frey Filament Test Values (Mean ± SD), Baseline: 6.76 ± 0.73 g
[2]; [5]
  Von Frey Filament Test Values (Mean ± SD), 15 min: 9.85 ± 2.15 g
  Von Frey Filament Test Values (Mean ± SD), 2 h: 8.69 ± 1.57 g
[2]; [6]
  Von Frey Filament Test Values (Mean ± SD), Baseline: 6.81 ± 0.70 g
[2]; [7]
  Von Frey Filament Test Values (Mean ± SD), 15 min: 10.87 ± 1.00 g
  Von Frey Filament Test Values (Mean ± SD), 2 h: 10.57 ± 1.76 g
[2]; [8]
  Von Frey Filament Test Values (Mean ± SD), 5 h: 9.68 ± 1.63 g
[2]; [9]
  Von Frey Values of Individual Animal, Day 14, 15 min: 11.6 g and 11.4 g (2×) and 9.4 g (2×) and 10.9 g and 9.7 g and 10.3 g and 10.1 g and 11.1 g and 10.8 g and 10.4 g and 12.0 g and 13.7 g and 11.7 g and 10.0 g
  Von Frey Values of Individual Animal, Day 14, 2 h: 7.1 g and 8.9 g and 11.3 g and 10.8 g (2×) and 9.2 g and 7.2 g and 12.0 g and 9.8 g and 10.5 g and 10.3 g and 11.4 g and 11.0 g and 12.3 g and 13.0 g and 13.5 g
  Von Frey Values of Individual Animal, Day 14, 5 h: 7.3 g and 8.9 g and 8.7 g (2×) and 9.5 g and 7.1 g and 7.4 g and 8.5 g and 11.0 g and 9.8 g and 11.3 g and 9.9 g and 11.2 g and 12.6 g and 12.1 g and 10.9 g
[2]; [10]
  Von Frey Values of Individual Animal, Day 7, 15 min: 6.5 g and 5.5 g and 11.9 g and 13.8 g and 8.6 g and 8.5 g (2×) and 10.5 g (2×) and 11.3 g (2×) and 8.7 g and 9.3 g and 9.7 g and 11.4 g and 11.7 g
  Von Frey Values of Individual Animal, Day 7, 2 h: 7.0 g and 6.2 g and 11.4 g and 11.2 g and 8.7 g (2×) and 9.0 g and 7.5 g (3×) and 6.5 g and 8.5 g and 10.8 g (2×) and 8.4 g and 9.4 g
[2]; individual animal, pretreatment day 7, two repeated stimuli per animal, hydrochloride
  First Baseline, Von Frey, individual animal: 4.9 g and 5.8 g (3×) and 6.7 g and 7.7 g and 6.1 g and 7.0 g and 7.1 g and 6.4 g and 7.4 g (2×) and 7.3 g (2×) and 8.0 g and 7.5 g
[2]; individual animal, pretreatment day 14 after washing-out, two repeated stimuli per animal, hydrochloride
  Second Baseline, Von Frey, individual animal: 5.2 g and 5.4 g and 8.4 g and 6.7 g and 6.6 g (2×) and 6.4 g and 7.3 g (2×) and 7.1 g and 6.8 g and 7.6 g and 7.4 g and 6.9 g and 6.2 g and 7.0 g
[3]; [4]
  Weight Bearing Test Values (Mean ± SD), Baseline: 48.83 ± 9.15 g
[3]; [5]
  Weight Bearing Test Values (Mean ± SD), 15 min: 25.30 ± 7.97 g
  Weight Bearing Test Values (Mean ± SD), 2 h: 37.43 ± 9.77 g
[3]; [6]
  Weight Bearing Test Values (Mean ± SD), Baseline: 46.68 ± 4.82 g
[3]; [7]
  Weight Bearing Test Values (Mean ± SD), 15 min: 28.55 ± 10.91 g
  Weight Bearing Test Values (Mean ± SD), 2 h: 30.48 ± 7.88 g
[3]; [8]
  Weight Bearing Test Values (Mean ± SD), 5 h: 37.58 ± 6.58 g
[3]; [11]
  Weight Bearing Values of Individual Animal, Day 14, 15 min, Left: 59.4 g and 69.4 g and 72.7 g and 72.8 g and 23.1 g and 55.7 g and 42.0 g and 55.0 g
  Weight Bearing Values of Individual Animal, Day 14, 15 min, Right: 82.5 g and 90.8 g and 92.9 g and 99.1 g and 77.6 g and 82.3 g and 70.4 g and 82.9 g
  Weight Bearing Values of Individual Animal, Day 14, 15 min, Δ: 23.1 g and 21.4 g and 20.2 g and 26.3 g and 54.5 g and 26.6 g and 28.4 g and 27.9 g
  Weight Bearing Values of Individual Animal, Day 14, 2 h, Left: 75.2 g and 69.4 g and 47.2 g and 71.7 g (2×) and 76.8 g and 55.9 g and 47.9 g
  Weight Bearing Values of Individual Animal, Day 14, 2 h, Right: 95.7 g and 104.8 g and 90.0 g and 96.8 g and 99.9 g and 93.7 g and 80.6 g and 98.1 g
  Weight Bearing Values of Individual Animal, Day 14, 2 h, Δ: 20.5 g and 35.4 g and 42.8 g and 25.1 g and 23.1 g and 37.8 g and 32.7 g and 26.4 g
  Weight Bearing Values of Individual Animal, Day 14, 5 h, Left: 63.5 g and 62.4 g and 66.3 g and 54.9 g and 63.8 g and 57.7 g and 47.6 g and 44.0 g
  Weight Bearing Values of Individual Animal, Day 14, 5 h, Right: 94.2 g and 111.2 g and 105.6 g and 95.6 g and 95.1 g and 88.7 g and 83.3 g and 87.1 g
  Weight Bearing Values of Individual Animal, Day 14, 5 h, Δ: 30.7 g and 48.8 g and 39.3 g and 40.7 g and 31.3 g and 31.0 g and 35.7 g and 43.1 g
[3]; [12]
  Weight Bearing Values of Individual Animal, Day 7, 15 min, Left: 54.2 g and 73.4 g and 30.9 g and 63.3 g and 46.3 g and 67.8 g and 45.1 g and 60.6 g
  Weight Bearing Values of Individual Animal, Day 7, 15 min, Right: 77.2 g and 99.2 g and 71.7 g and 77.8 g and 72.4 g and 85.5 g and 75.2 g and 85.0 g
  Weight Bearing Values of Individual Animal, Day 7, 15 min, Δ: 23.0 g and 25.8 g and 40.8 g and 14.5 g and 26.1 g and 17.7 g and 30.1 g and 24.4 g
  Weight Bearing Values of Individual Animal, Day 7, 2 h, Left: 42.3 g and 29.7 g and 57.5 g and 72.9 g and 23.1 g and 37.3 g and 43.5 g and 51.9 g
  Weight Bearing Values of Individual Animal, Day 7, 2 h, Right: 66.8 g and 74.0 g and 106.2 g and 97.7 g and 71.6 g and 77.0 g and 81.2 g and 83.1 g
  Weight Bearing Values of Individual Animal, Day 7, 2 h, Δ: 24.5 g and 44.3 g and 48.7 g and 24.8 g and 48.5 g and 39.7 g and 37.7 g and 31.2 g
[3]; individual animal, pretreatment day 7, left (CFA-injected) hind paw, hydrochloride
  First Baseline, Balance Left, individual animal: 62.6 g and 45.6 g and 51.0 g and 60.6 g and 48.8 g and 56.5 g and 38.6 g and 64.0 g
[3]; individual animal, pretreatment day 7, right hind paw, hydrochloride
  First Baseline, Balance Right, individual animal: 96.2 g (2×) and 101.1 g and 115.5 g and 89.7 g and 121.0 g and 87.7 g and 110.9 g
[3]; individual animal, pretreatment day 7, right minus left, hydrochloride
  First Baseline, Balance Δ, individual animal: 33.6 g and 50.6 g and 50.1 g and 54.9 g and 40.9 g and 64.5 g and 49.1 g and 46.9 g
[3]; individual animal, pretreatment day 14, left (CFA-injected) hind paw, hydrochloride
  Second Baseline, Balance Left, individual animal: 43.2 g and 65.0 g and 68.9 g and 61.3 g and 47.2 g and 60.6 g and 50.2 g and 51.8 g
[3]; individual animal, pretreatment day 14, right hind paw, hydrochloride
  Second Baseline, Balance Right, individual animal: 86.1 g and 110.8 g and 113.2 g and 115.1 g and 93.6 g and 102.8 g and 93.7 g and 106.3 g
[3]; individual animal, pretreatment day 14, right minus left, hydrochloride
  Second Baseline, Balance Δ, individual animal: 42.9 g and 45.8 g and 44.3 g and 53.8 g and 46.4 g and 42.2 g and 43.5 g and 54.5 g
